Legend:
[1] = test system: Firefly luciferase HCV replicon cells (3-1); experiment: Replicon assay (firefly luciferase HCV replicon); format: cell-based; conditions: Hepatitis C virus, 72 h; Huh7-derived luciferase HCV replicon cells, 3 days culture with compound, Steady-Glo luminescence
Experimental: (§1) A construct was prepared in which a luciferase gene derived from firefly was introduced as a reporter gene in HCV-RNA to assay the number of copies of HCV-RNA. The luciferase gene was introduced in the form of fusing with neomycin-resistance gene directly below the IRES (Internal Ribosome Entry Site) of the HCV gene in accordance with the method of Krieger, et al. (J. Virol. 75:4614). After synthesizing this RNA in vitro, it was introduced into Huh7 cell by electroporation and isolated as G418-resistant clone. Firefly luciferase HCV replicon cells (3-1) were suspended in Dulbecco's MEM (Gibco cat. no. 10569-010) containing 5% fetal bovine serum (Hyclone cat. no. SH30071.03), inoculated into the wells of a 96-well plate at 5000 cells/well and then cultured overnight at 37° C. and 5% CO2. Approximately 20 hours later, the diluted test compound was added at 10 μl per well followed by culturing for another 3 days. Two series of assay plates were prepared, and the assay was carried out using a white plate for one series and a clear plate for the other series. Following completion of culturing, the white plate was used for the Steady-Glo Luciferase Assay System (Promega cat. no. E2520). Namely, after adding 100 μl of reagent per well, mixing by a pipette 3 to 4 times and then allowing to stand for 5 minutes, luminescence was measured with the 1450 MicroBeta TRILUX (Wallac). Values obtained in the absence of cell addition were used as background values and subtracted from all values to calculate the IC50 (50% inhibitory concentration) of the drug based on a value of 0% inhibition for the value in the absence of addition of test compound.

[2] = in vitro; format: cell-based; conditions: human; replicon cells, 3 days culture with compound, Cell Counting Kit 8, absorbance 450 nm; read-out: Cytotoxicity CC50
Experimental: as §1
The Cell Counting Kit 8 (Dojindo cat. no. CK04) was used to determine the cytotoxicity. Namely, 10 μl of Cell Counting Kit 8 were added to a clear plate and incubated for 30 to 60 minutes at 37° C. Absorbance at a wavelength of 450 nm and a control wavelength of 630 nm was measured with a 96-well plate reader. Values in the absence of cell addition were used as background values and subtracted from all values to calculate the CC50 (50% cell inhibitory concentration) of the drug based on a value of 0% inhibition for the value in the absence of addition of drug.

| Structure (SMILES) | IC50 [1] | CC50 [2] |
| --- | --- | --- |
| CCCCCCCC(=O)CCCCCC/C=C/[C@H](C(=O)N[C@@H](Cc1ccc(Oc2ccccc2)cc1)C(=O)O)[C@@](O)(CC(=O)O)C(=O)O [Compound 15] | 2 nM | > 5000 nM |
| CCCCCCCC(=O)CCCCCC/C=C/[C@H](C(=O)N[C@@H](Cc1ccc(C)cc1)C(=O)O)[C@@](O)(CC(=O)O)C(=O)O [Compound 16] | 10 nM | > 5000 nM |
| CCCCCCCC(=O)CCCCCC/C=C/[C@H](C(=O)N[C@@H](Cc1ccc(OCc2ccccc2)cc1)C(=O)O)[C@@](O)(CC(=O)O)C(=O)O [Compound 17] | < 1 nM | > 5000 nM |
| CC#CCOc1ccc(C[C@H](NC(=O)[C@@H](/C=C/CCCCCCC(=O)CCCCCCC)[C@@](O)(CC(=O)O)C(=O)O)C(=O)O)cc1 [Compound 18] | 1 nM | > 5000 nM |
| CCCCCCCC(=O)CCCCCC/C=C/[C@H](C(=O)N[C@@H](Cc1ccc(-c2ccccc2)cc1)C(=O)O)[C@@](O)(CC(=O)O)C(=O)O [Compound 19] | 2 nM | > 5000 nM |
| CCCCCCCC(=O)CCCCCC/C=C/[C@H](C(=O)N[C@@H](Cc1ccc2ccccc2c1)C(=O)O)[C@@](O)(CC(=O)O)C(=O)O [Compound 20] | 7 nM | > 5000 nM |
| CCCCCCCC(=O)CCCCCC/C=C/[C@H](C(=O)N[C@@H](Cc1ccc(OC2CCCCC2)cc1)C(=O)O)[C@@](O)(CC(=O)O)C(=O)O [Compound 21] | 4 nM | > 1000 nM |
| CCCCCCCC(=O)CCCCCC/C=C/[C@H](C(=O)N[C@@H](Cc1ccc(CCCC(C)C)cc1)C(=O)O)[C@@](O)(CC(=O)O)C(=O)O [Compound 22] | 14 nM | > 1000 nM |
| CCCCCCCC(=O)CCCCCC/C=C/[C@H](C(=O)N[C@@H](Cc1ccc(OC)c(OC)c1)C(=O)O)[C@@](O)(CC(=O)O)C(=O)O [Compound 23] | 17 nM | > 1000 nM |
| CCCCCCCC(=O)CCCCCC/C=C/[C@H](C(=O)N[C@@H](Cc1ccc(Oc2ccc(Cl)cc2)cc1)C(=O)O)[C@@](O)(CC(=O)O)C(=O)O [Compound 24] | 11 nM | > 1000 nM |
| CCCCCCCC(=O)CCCCCC/C=C/[C@H](C(=O)N[C@@H](Cc1ccc(Oc2ccc(F)cc2)cc1)C(=O)O)[C@@](O)(CC(=O)O)C(=O)O [Compound 25] | 9 nM | > 1000 nM |
| CCCCCCCC(=O)CCCCCC/C=C/[C@H](C(=O)N[C@@H](Cc1ccc(CCCCC)cc1)C(=O)O)[C@@](O)(CC(=O)O)C(=O)O [Compound 26] | 17 nM | > 1000 nM |
| CCCCCCCC(=O)CCCCCC/C=C/[C@H](C(=O)N[C@@H](Cc1ccc(-c2cccnc2)cc1)C(=O)O)[C@@](O)(CC(=O)O)C(=O)O [Compound 27] | 10 nM | > 1000 nM |
| CCCCCCCC(=O)CCCCCC/C=C/[C@H](C(=O)N[C@@H](Cc1ccc(-c2ccc(Cl)cc2)cc1)C(=O)O)[C@@](O)(CC(=O)O)C(=O)O [Compound 28] | 9 nM | > 1000 nM |
| CCCCCCCC(=O)CCCCCC/C=C/[C@H](C(=O)N[C@@H](Cc1ccc(-c2ccc(F)cc2)cc1)C(=O)O)[C@@](O)(CC(=O)O)C(=O)O [Compound 29] | 6 nM | > 1000 nM |
| CCCCCCCC(=O)CCCCCC/C=C/[C@H](C(=O)N[C@@H](Cc1ccc(-c2ccc(F)cc2F)cc1)C(=O)O)[C@@](O)(CC(=O)O)C(=O)O [Compound 30] | 8 nM | > 1000 nM |
| CCCCCCCC(=O)CCCCCC/C=C/[C@H](C(=O)N[C@@H](Cc1ccc(-c2ccsc2)cc1)C(=O)O)[C@@](O)(CC(=O)O)C(=O)O [Compound 31] | 12 nM | > 1000 nM |
| CCCCCCCC(=O)CCCCCC/C=C/[C@H](C(=O)NC(Cc1ccc(C(F)(F)F)cc1)C(=O)O)[C@@](O)(CC(=O)O)C(=O)O (stereo partly shown) [Compound 32] | 68 nM | > 1000 nM |
| CCCCCCCC(=O)CCCCCC/C=C/[C@H](C(=O)NC(Cc1ccc(C#N)cc1)C(=O)O)[C@@](O)(CC(=O)O)C(=O)O (stereo partly shown) [Compound 33] | 12 nM | > 1000 nM |
| CCCCCCCC(=O)CCCCCC/C=C/[C@H](C(=O)NC(Cc1ccc(Cl)cc1)C(=O)O)[C@@](O)(CC(=O)O)C(=O)O (stereo partly shown) [Compound 34] | 55 nM | > 1000 nM |
| CCCCCCCC(=O)CCCCCC/C=C/[C@H](C(=O)NC(Cc1ccc([N+](=O)[O-])cc1)C(=O)O)[C@@](O)(CC(=O)O)C(=O)O (stereo partly shown) [Compound 35] | 80 nM | > 1000 nM |

| Structure (SMILES) | IC50 [1] | CC50 [2] |
| --- | --- | --- |
| CCCCCCCC(=O)CCCCCC/C=C/[C@H](C(=O)N[C@@H](Cc1cccs1)C(=O)O)[C@@](O)(CC(=O)O)C(=O)O [Compound 36] | 500 nM | > 1000 nM |
| CCCCCCCC(=O)CCCCCC/C=C/[C@H](C(=O)N[C@@H](Cc1ccc(C(C)(C)C)cc1)C(=O)O)[C@@](O)(CC(=O)O)C(=O)O [Compound 37] | 210 nM | > 1000 nM |
| CCCCCCCC(=O)CCCCCC/C=C/[C@H](C(=O)N[C@@H](Cc1ccc(-c2cccc(Cl)c2)cc1)C(=O)O)[C@@](O)(CC(=O)O)C(=O)O [Compound 38] | 24 nM | > 1000 nM |
| CCCCCCCC(=O)CCCCCC/C=C/[C@H](C(=O)N[C@@H](Cc1ccc(Oc2cccc(Cl)c2)cc1)C(=O)O)[C@@](O)(CC(=O)O)C(=O)O [Compound 39] | 20 nM | > 1000 nM |
| CCCCCCCC(=O)CCCCCC/C=C/[C@H](C(=O)NC(Cc1ccc(OCCCC)cc1)C(=O)O)[C@@](O)(CC(=O)O)C(=O)O (stereo partly shown) [Compound 40] | 1 nM | > 1000 nM |
| CCCCCCCC(=O)CCCCCC/C=C/[C@H](C(=O)NC(Cc1ccc(OCCC)cc1)C(=O)O)[C@@](O)(CC(=O)O)C(=O)O (stereo partly shown) [Compound 41] | 2 nM | > 1000 nM |
| C=CCOc1ccc(CC(NC(=O)[C@@H](/C=C/CCCCCCC(=O)CCCCCCC)[C@@](O)(CC(=O)O)C(=O)O)C(=O)O)cc1 (stereo partly shown) [Compound 42] | 1 nM | > 1000 nM |
| CCCCCCCC(=O)CCCCCC/C=C/[C@H](C(=O)NC(Cc1ccc(OC)cc1)C(=O)O)[C@@](O)(CC(=O)O)C(=O)O (stereo partly shown) [Compound 43] | 3 nM | > 1000 nM |
| CCCCCC(=O)CCCCCCCC/C=C/[C@H](C(=O)N[C@@H](Cc1ccc(OCCC(C)C)cc1)C(=O)O)[C@@](O)(CC(=O)O)C(=O)O [Compound 44] | 1 nM | > 1000 nM |
| CCCCCCCCCC(=O)CCCC/C=C/[C@H](C(=O)N[C@@H](Cc1ccc(OCCC(C)C)cc1)C(=O)O)[C@@](O)(CC(=O)O)C(=O)O [Compound 45] | 5 nM | > 1000 nM |
| CCCC(=O)CCCCCC/C=C/[C@H](C(=O)N[C@@H](Cc1ccc(OCCC(C)C)cc1)C(=O)O)[C@@](O)(CC(=O)O)C(=O)O [Compound 46] | 800 nM | > 5000 nM |
| CC(C)CCOc1ccc(C[C@H](NC(=O)[C@@H](/C=C/CCCCCCC(=O)CCc2ccccc2)[C@@](O)(CC(=O)O)C(=O)O)C(=O)O)cc1 [Compound 47] | 250 nM | > 1000 nM |
| C=CCCCCCC(=O)CCCCCC/C=C/[C@H](C(=O)N[C@@H](Cc1ccc(OCCC(C)C)cc1)C(=O)O)[C@@](O)(CC(=O)O)C(=O)O [Compound 48] | 3 nM | > 1000 nM |
| CCCCCCCCC(=O)CCCCCC/C=C/[C@H](C(=O)N[C@@H](Cc1ccc(OCCC(C)C)cc1)C(=O)O)[C@@](O)(CC(=O)O)C(=O)O [Compound 49] | 4 nM | > 1000 nM |
| CC(C)CCCCC(=O)CCCCCC/C=C/[C@H](C(=O)N[C@@H](Cc1ccc(OCCC(C)C)cc1)C(=O)O)[C@](O)(CC(=O)O)C(=O)O [Compound 50] | 4 nM | > 1000 nM |
| CCCCCCC(=O)CCCCCC/C=C/[C@H](C(=O)N[C@@H](Cc1ccc(OCCC(C)C)cc1)C(=O)O)[C@](O)(CC(=O)O)C(=O)O [Compound 51] | 17 nM | > 1000 nM |
| CC(C)CCOc1ccc(C[C@H](NC(=O)[C@@H](/C=C/CCCCCCC(=O)CCC2CCCCC2)[C@](O)(CC(=O)O)C(=O)O)C(=O)O)cc1 [Compound 52] | 24 nM | > 1000 nM |
| CCCCCCCC(=O)CCCCCC/C=C/[C@H](C(=O)N[C@@H](Cc1ccc(Oc2ccc(C)cc2)cc1)C(=O)O)[C@@](O)(CC(=O)O)C(=O)O [Compound 53] | 2 nM | > 1000 nM |
| CCCCCCCC(=O)CCCCCC/C=C/[C@H](C(=O)N[C@@H](Cc1ccc(Oc2ccc(OC)cc2)cc1)C(=O)O)[C@@](O)(CC(=O)O)C(=O)O [Compound 54] | 2 nM | > 1000 nM |
| CCCCCCCC(=O)CCCCCC/C=C/[C@H](C(=O)N[C@@H](Cc1ccc(Oc2ccc(C(F)(F)F)cc2)cc1)C(=O)O)[C@@](O)(CC(=O)O)C(=O)O [Compound 55] | 19 nM | > 1000 nM |
